Laboratory results: US9944971B2, “Determination of direct thrombin inhibitors in fluids like serum or urine” (DOASENSE GmbH, priority 2011, dated 2018)

Assays:
[1] = Concentration of dabigatran in urine of a treated patient, read from curve of spiked urine; parameters: species or system human
Procedure: This program quantifies the colors red, yellow and blue. […] Mean values were calculated from double values.

thrombin = target: T1, thrombin (Bos taurus, UniProt P00735); assay: Chromogenic thrombin (factor IIa) inhibition test with substrate S-2238, absorption at 405 nm; format: biochemical; conditions: samples of plasma, serum and urine spiked at different concentrations, FIGS. 2 and 3
T1 construct: purchased Chromogenix
Procedure: Dissolve 1 ampule thrombin 10 U with 1 ml aqua. dest and is brought to 11.5 ml with Tris-Buffer. Additionally, add 1 ml aprotinin 500 KIU/ml.
The concentration of Dabigatran and Hirudin was carried out using the standard curve. The concentration of Dabigatran/Hirudin was determined by the optical density (OD) of the sample.

Compound | concentration of dabigatran ([1]; human urine from a patient treated with dabigatran, undiluted) [ng] | concentration of dabigatran ([1]; patient urine diluted 1:10 with urine not containing dabigatran) [ng] | concentration of dabigatran ([1]; patient urine diluted 1:100 with urine not containing dabigatran) [ng] | inhibition of the activity of thrombin and release of para-nitroaniline from chromogenic substrate S2238 (thrombin)
[H]/N=C(/N)c1ccc(NCc2nc3cc(C(=O)N(CCC(=O)O)c4ccccn4)ccc3n2C)cc1 [Dabigatran] | 85 | 8.5 | 0.85 | 
Hirudin |  |  |  | in a dose-dependent manner
